The source of these data is patent US20040143461A1, “Generating, viewing, interpreting, and utilizing a quantitative database of metabolites” (Lipomics Technologies, Inc., priority 2001, published 2004).

For data set [1] the following is noted: humans; cited from earlier work.
Data set [2] has as its system heart lipid metabolome. As for the experimental part:
(§1) Mouse tissue and plasma samples were a generous donation to Lipomics Technologies from Dr. Edward Leiter of the Jackson Laboratory (Bar Harbor, Me.). Samples included the plasma, heart, liver and inguinal adipose of mice treated with pharmaceuticals or their corresponding controls.
(§2) In both studies, five treated and five control mice were used. Following the treatments and the killing of the mice, tissues and plasma were taken, chilled to −80° C. and shipped to the analysis laboratory at Lipomics Technologies in a frozen state.
(§3) For the analysis of liver and heart tissues, 25 mg of tissue were placed in a ground glass homogenizer and internal standards were added. The internal standards for use in the analyses of these tissues may take many forms, but in this instance consisted of: 4.75 μg of N-pentadecenoyl-D-erythro-sphingosylphorylcholine; 74.78 μg of 1,2 diheptadecanoylphosphatidylcholine; 33.57 μg of 1,2-diheptadecenoylphosphatidylserine (for phosphatidylserine); 24.13 μg of 1,2-diheptadecenoylphosphatidylethanolamine; 13.38 μg of 1,1′,2,2′-tetraheptadecaenoyl cardiolipin (for cardiolipin); 1.12 μg of pentadecaenoic acid; 27.82 μg of triheptadecaenoic acid; 1.56 μg of cholesteryl heptadecanoate; and 27.70 μg of stigmasterol.
(§4) The solution mixture consisting of sample, fluid extractant, and internal standards was homogenized by twelve strokes with a ground-glass homogenizer. Following homogenization, 1.8 ml of 0.01 M potassium chloride was added, and the solution was vigorously mixed. The organic fraction containing the lipids and the internal standards was separated from the polar fraction of the mixture by centrifugation. The lipid extract was removed from the mixture and concentrated under a stream of nitrogen in preparation for lipid class separation.
(§5) The separation of lipid classes was performed by preparative thin-layer chromatography (TLC), essentially as previously described (Watkins et al., Lipids 36:247-254, 2001). To remove any residual metal or other damaging contaminants on the TLC plates, each plate was washed prior to use. Washing the plates is a three-step process that involves impregnating each plate with ethylenediamine tetraacetic acid (EDTA) and rinsing the plates once with methanol and once with chloroform. Each plate is first impregnated with 1 mM EDTA, pH 5.5, by ascending development using the method of Ruiz (J. Lipid Res. 38, 1482-1489, 1997). After each plate was completely developed, it was dried in air overnight. Once dry, each plate was developed in methanol, dried, and developed in chloroform in the same direction as the development with EDTA. The washed plates were then dried in air. Just prior to use, each plate was activated by heating to 110° C. for 10 minutes.
(§6) To prepare the TLC chamber for chromatography, Whatman (Clifton, N.J.) filter paper was cut into 20×80-cm strips and wrapped around the inside wall of a 30×60×10-cm glass development chamber. One hundred milliliters of the appropriate mobile phase was added to the chamber, and the chambers were sealed and allowed to equilibrate. Chambers were considered equilibrated when the solvent front had completely ascended the filter paper. The mobile phase employed for the separation of phospholipid classes (lyso-phospholipids, sphingomyelin, phosphatidylcholine, phosphatidylserine, phosphatidylethanolamine and cardiolipin) was a modification of the solvent system described by Holub and Skeaf (“Nutritional regulation of cellular phosphatidylinositol,” in Meth. Enzym., ed. Conn (Academic Press, Inc., Orlando), pp. 234-243, 1987) consisting of chloroform/methanol/acetic acid/water (100:67:7:4, by vol).
(§7) For the separation of neutral lipid classes (free fatty acids, free sterols, triacylglycerides and cholesterol esters), a solvent system consisting of petroleum ether/diethyl ether/acetic acid (80:20:1, by vol) was used (Mangold, Thin Layer Chromatography— A Laboratory Handbook (Springer-Verlag, New York), 1969).

The subject of data set [3] is liver lipid metabolome. The conditions noted are these: treated mice. As for the experimental part: as §1, §2, §3, §4, §5, §6, §7
Data set [4] can be described thus: Body weight, glycemia, insulin and hepatic steatosis in rosiglitazone-treated (NZO×NON)F1 male mice. The class given is in vivo, mouse.
Data set [5] concerns inguinal adipose lipid metabolome. As for the experimental part: as §1, §2
The lipids from plasma and tissues were extracted in the presence of authentic internal standards by the method of Folch et al. (J. Biol. Chem. 226, 497-509, 1957) by homogenization in a fluid extractant consisting of chloroform:methanol (2:1 vol:vol). Plasma (200 μl), or 10 mg inguinal adipose tissue was used for each analysis. For each sample, an appropriate mass of internal standard was added. The internal standard compounds chosen may take many forms, but in one specific example the internal standards added to each plasma sample were: 1.75 μg of heptadecanoic 1-heptadecanoyl-2-lyso-phosphatidycholine (for lysophospholipids), 2.25 micrograms of N-pentadecenoyl-D-erythro-sphingosylphorylcholine (for sphingomyelin), 39.93 micrograms of 1,2 diheptadecanoylphosphatidylcholine (for phosphatidylcholine), 0.93 micrograms of 1,2-diheptadecenoylphosphatidylethanolamine (for phosphatidylethanolamine), 2.09 micrograms of pentadecaenoic acid (for free fatty acids), 32.93 micrograms of triheptadecaenoic acid (for triacylglycerides), 27.27 micrograms of cholesteryl heptadecanoate (for cholesterol esters) and 38.03 micrograms of stigmasterol (for free sterols).
as §4, §5
To prepare the TLC chamber for chromatography, Whatman (Clifton, N.J.) filter paper was cut into 20×80-cm strips and wrapped around the inside wall of a 30×60×10-cm glass development chamber. One hundred milliliters of the appropriate mobile phase was added to the chamber, and the chambers were sealed and allowed to equilibrate. Chambers were considered equilibrated when the solvent front had completely ascended the filter paper.

Data set [6] concerns plasma lipids. Put plainly: Lipomic assessment of CL316,243-treated NZO mice (trial 2), targeting graph versus rosiglitazone. The class given is in vivo, mouse. An excerpt:
In a targeting display, quantitative metabolite data is compared from two samples that have been subjected to different treatments, for instance treatment with two different drugs or a drug and a test compound. The percentage or absolute changes (versus the standard sample) in the measured metabolites are plotted against each other on a Cartesian graph. This visual system facilitates the comparison of the global and individual metabolic effects of the two conditions being examined. If the two treatments (e.g., two drug treatments) affect the biological system in metabolically similar ways, the data points will fall along a line with a slope of 1, running through the origin (from the lower left to the upper right quadrant, in other words). Outlier data points, where one treatment or the other has a different effect on a metabolite, will lie in the upper left or lower right quadrants, and are therefore easily identified. […] The further off the “equivalent” slope a data point is, the greater the magnitude of differential effect that is being illustrated.
The metabolites found in the lower left and the upper right quadrants of the scatter plot (especially those where the X and Y values are similar) represent those likely affected by similar molecular mechanisms. […]

Setting [7] is: amount in parentheses after the % greater.
The mark [8] stands for this setting: treated vs control mice, FIG. 5.

SMILES strings stand for the structures. Read-outs that look alike come from different tables or passages of the source.

In the case of `CN(CCOc1ccc(CC2SC(=O)NC2=O)cc1)c1ccccn1` (stereo not drawn) [rosiglitazone], in data set [1], the weight gain result was “often accompanied by weight gain”. In addition, the “14:0 fatty acid associated with heart sphingomyelin, more than the control sample” value in data set [2] (FIG. 5 heat map, test sample vs control sample) is recorded as 80%. In addition, in data set [2] (treated mice, control 2,200 nmol/g), the “Docosahexaenoic acid (22:6n3) in heart cardiolipin” value came out at 950 nmol/g. In data set [2] (treated mice, control 4,550 nmol/g), the “linoleic acid (18:2n6) in heart cardiolipin” value is given as 8,850 nmol/g. Moreover, in data set [2] (treated mice, untreated 2,500 nmol/g), the “mean cardiolipin content of hearts” value is listed as 3,000 nmol/g. Besides, the “average concentration of total free fatty acids in the heart” value in data set [2] (treated mice, untreated 5,100 nmol/g) is reported as 2,500 nmol/g. Moreover, the “heart free fatty acids of the saturated n-3, n-6, and n-9 families, lower than in untreated mice” value in data set [2] (treated vs untreated mice, FIG. 7) is listed as “approximately 50%”. Besides, the liver sphingomyelin concentration in data set [3] (untreated 1,890 nmol/g) is 1,180 nmol/g. Further, the Total hepatic triacylglycerides in data set [3] (untreated 81,300 nmol/g) is reported as 150,400 nmol/g. Moreover, the body weight entry in data set [4] (markedly-obese (NZO×NON)F1 male mice) was “increase in body weight”. In addition, the hepatic steatosis result in data set [4] (treated animals) was “severe hepatic steatosis”. In data set [5] (setting [7]), the “docosahexaenoic acid in inguinal fat triacylglycerides, greater concentration than control” value is given as 7,000 nmol/g and the “eicosapentaenoic acid in inguinal fat triacylglycerides, greater concentration than control” value is reported as 4,100 nmol/g. In addition, the “a-linolenic acid in inguinal fat triacylglycerides, more than control” value in data set [5] (amount in parentheses after the % more) is 24,300 nmol/g. In data set [5] (treated mice), the “concentration of total n-3 fatty acids in the inguinal fat triacylglycerides” value is reported as 71,260 nmol/g and the “inguinal fat triacylglyceride content” value is reported as 9,628 μmol/g. Besides, the “inguinal fat free fatty acids” value in data set [5] (treated mice, controls 9,900 nmol/g) is recorded as 13,370 nmol/g. Besides, the “concentration of n-7 fatty acids in inguinal fat triacylglycerides” value in data set [5] (treated mice, untreated 204 μmol/g) amounted to 303 µmol/g. Moreover, in data set [5] (treated vs control mice), the “inguinal fat free fatty acids, more than controls” value is given as 35% and the “inguinal fat triacylglyceride content, lower than controls” value was 5.7%. Also, in data set [5] (setting [8]), the “a-linolenic acid in inguinal fat triacylglycerides, more than control” value is listed as 84%; the “docosahexaenoic acid in inguinal fat triacylglycerides, greater concentration than control” value turned out to be 612%; the “eicosapentaenoic acid in inguinal fat triacylglycerides, greater concentration than control” value is recorded as 522%. Besides, in data set [5] (treated vs untreated mice), the “total concentration of n-6 fatty acids in inguinal fat, higher than untreated” value is “less than 3%” and the “total n-3 fatty acids in inguinal fat triacylglycerides, greater than in untreated mice” value came to 120%.
With `C[C@H](Cc1ccc2c(c1)OC(C(=O)[O-])(C(=O)[O-])O2)NC[C@H](O)c1cccc(Cl)c1.[Na+].[Na+]` [CL316,243], the “similarity of effect on plasma lipids to rosiglitazone” value in data set [6] (targeting graph FIG. 6, NZO mice, 0.001% in chow, four weeks) was “largely validated”. Besides, the “increase in the de novo synthesis of fatty acids” value in data set [6] (targeting graph FIG. 6, upper left quadrant metabolites (16:1n7, 18:1n7, 20:3n9)) was “not induced”.
